Several values for one entry are separate records, joined by “and”; a condition that tells them apart may be missing. Equal entries are not always repeated.
What was measured:
[1] = reported; in humans; cited from earlier work
[2] = Tigecycline plasma PK after IV bolus in dogs; format: in vivo, Beagle dogs; details: for concentration at 10 min / concentration at 15 min / concentration at 20 min: Beagle
Description: Adult beagle dogs weighing approximately 9 to 15 kg were used in the study. […] Room temperature was set to be maintained between approximately 20±5° C. Relative humidity was monitored but not controlled.
TEKLAD™ Certified Canine Diet was provided once daily in amounts (˜400 grams) appropriate for the size and age of the animals. Tap water was available ad libitum via automatic watering device or water bowls.
Doses are expressed in terms of free net tigecycline content. […] Oral dosing of enteric-coated capsules was accomplished by administering them to the back of the dog's mouth, followed by a chase of 5 mL water to ensure swallowing.
Water was provided ad libitum. […] Subsequently, each group of animals was dosed based on the protocol, i.e. either IV, or PO by capsule.
Minocycline (VWR international) was used as an internal standard. Sample processing/clean-up of plasma samples was carried out offline by protein precipitation with acidified acetonitrile using 0.5% trifluoroacetic acid (TFA).
The HPLC system consisted of Shimadzu SIL-HTc HPLC system equipped with dual Shimadzu LC-10ADvp isopumps, a Shimadzu CTO-10ASvp column temperature controller and a Shimadzu SPD-10Avp variable wavelength detector. […] Mobile phase A consisted of 23 mM phosphate buffer pH 2.5 with 4 mM 1-octanesulfonic acid, while mobile phase B consisting of 90% acetonitrile, 10% water, with 2 mM 1-octanesulfonic acid. […] The total runtime was 18 minutes per sample. The mobile phase flow rate was 1.2 mL/min. Detection was performed using the SPD-10Avp variable wavelength detector set at 350 nm, with a sensitivity of 0.001 aufs.
The samples were then centrifuged under refrigeration at 13 k rpm for 5 minutes. The supernatant was taken and the liquid removed to dryness under nitrogen in a turbovap. The dried extract was reconstituted in 60 μL of mobile phase A and the suspension was further centrifuged at 5 k rpm for 5 minutes to pellet any insoluble matter. The resulting supernatant was then injected onto the LC.
The unknown concentration in dog plasma samples was determined by interpolation of the peak area ratios of analyte:internal standard versus the ratio of their nominal concentrations into the regression line obtained from calibration standards spiked in pooled dog plasma. No regression weighting was used for the calculations. […] The calibration curve covered the range of 0.05 μg/mL to 5 μg/mL.
It should be noted however, that when the method was transferred to an older HPLC system (equipped with a Shimadzu SCT-10Avp system controller and SIL-10A autoinjector), the time program was further altered such that the gradient went to 38% mobile phase B to account to system design changes. All other parameters remained unchanged.
Tigecycline PK parameters for individual dogs were calculated using non-compartmental analysis with PK Functions for Microsoft Excel.

[3] = 1 mg IV in PBS (0.08 mg/kg), SC427, individual dogs

## CN(C)c1cc(NC(=O)CNC(C)(C)C)c(O)c2c1C[C@H]1C[C@H]3[C@H](N(C)C)C(O)=C(C(N)=O)C(=O)[C@@]3(O)C(O)=C1C2=O [Tigecycline]
[1]
  single dose half-life: approximately 20 hours
[2]; [3]
  AUC(0-t): 61.40 ng·h/mL and 99.54 ng·h/mL
  Cmax: 66.27 ng/mL and 85.18 ng/mL
  Tmax: 5 min
[2]; 1 mg IV in PBS (0.08 mg/kg), SC427, mean
  Tmax: 5 min
[2]; 5 mg IV in PBS ([…]), SC431, individual dogs
  Tmax: 5 min
[2]; 5 mg IV in PBS ([…]), SC431, mean
  Tmax: 5 min
[2]; 5 min, 1 mg IV in PBS (0.08 mg/kg), SC427, individual dogs
  Tigecycline Plasma Concentration: 66.27 ng/mL and 85.18 ng/mL
[2]; 10 min, 1 mg IV in PBS (0.08 mg/kg), SC427, individual dogs
  Tigecycline Plasma Concentration: 23.92 ng/mL and 33.00 ng/mL
[2]; 15 min, 1 mg IV in PBS (0.08 mg/kg), SC427, individual dogs
  Tigecycline Plasma Concentration: 19.85 ng/mL and 20.60 ng/mL
[2]; 20 min, 1 mg IV in PBS (0.08 mg/kg), SC427, individual dogs
  Tigecycline Plasma Concentration: 21.11 ng/mL and 29.60 ng/mL
[2]; 30 min, 1 mg IV in PBS (0.08 mg/kg), SC427, individual dogs
  Tigecycline Plasma Concentration: 17.14 ng/mL and 13.86 ng/mL
[2]; 40 min, 1 mg IV in PBS (0.08 mg/kg), SC427, individual dogs
  Tigecycline Plasma Concentration: 11.51 ng/mL and 21.58 ng/mL
[2]; 60 min, 1 mg IV in PBS (0.08 mg/kg), SC427, individual dogs
  Tigecycline Plasma Concentration: 12.49 ng/mL and 14.50 ng/mL
[2]; 90 min, 1 mg IV in PBS (0.08 mg/kg), SC427, individual dogs
  Tigecycline Plasma Concentration: 8.90 ng/mL and 13.98 ng/mL
[2]; 120 min, 1 mg IV in PBS (0.08 mg/kg), SC427, individual dogs
  Tigecycline Plasma Concentration: 8.80 ng/mL and 12.96 ng/mL
[2]; 360 min, 1 mg IV in PBS (0.08 mg/kg), SC427, individual dogs
  Tigecycline Plasma Concentration: 0.00 ng/mL (2×) and 3.45 ng/mL
[2]; IV bolus 1 mg (0.08 mg/kg), SC427
  Cmax, Mean: 79 ng/mL
[2]; IV, Study 1 (SC427), 1 mg (0.08 mg/kg), mean (% CV)
  Tmax: 5 (0) min
[2]; female, dog, plasma, intravenous, 1 mg, Tigecycline Plasma Concentration, 10 min, 1 mg IV in PBS (0.08 mg/kg), SC427, individual dogs
  concentration at 10 min: 38.8 ng/mL
[2]; female, dog, plasma, intravenous, 1 mg, Tigecycline Plasma Concentration, 10 min, 1 mg IV in PBS (0.08 mg/kg), SC427, mean
  concentration at 10 min: 31.9 ng/mL
[2]; female, dog, plasma, intravenous, 1 mg, Tigecycline Plasma Concentration, 15 min, 1 mg IV in PBS (0.08 mg/kg), SC427, individual dogs
  concentration at 15 min: 26.5 ng/mL
[2]; female, dog, plasma, intravenous, 1 mg, Tigecycline Plasma Concentration, 15 min, 1 mg IV in PBS (0.08 mg/kg), SC427, mean
  concentration at 15 min: 22.3 ng/mL
[2]; female, dog, plasma, intravenous, 1 mg, Tigecycline Plasma Concentration, 20 min, 1 mg IV in PBS (0.08 mg/kg), SC427, individual dogs
  concentration at 20 min: 27.7 ng/mL
[2]; female, dog, plasma, intravenous, 1 mg, Tigecycline Plasma Concentration, 20 min, 1 mg IV in PBS (0.08 mg/kg), SC427, mean
  concentration at 20 min: 26.1 ng/mL
[2]; female, beagle, dog, plasma, intravenous, 1 mg, Tigecycline Plasma Concentration, 5 min, 1 mg IV in PBS (0.08 mg/kg), SC427, individual dogs
  concentration at 5 min: 86 ng/mL
[2]; female, beagle, dog, plasma, intravenous, 1 mg, Tigecycline Plasma Concentration, 5 min, 1 mg IV in PBS (0.08 mg/kg), SC427, mean
  concentration at 5 min: 79.1 ng/mL
[2]; female, beagle, dog, plasma, intravenous, 1 mg, Tigecycline Plasma Concentration, 30 min, 1 mg IV in PBS (0.08 mg/kg), SC427, individual dogs
  concentration at 30 min: 17.6 ng/mL
[2]; female, beagle, dog, plasma, intravenous, 1 mg, Tigecycline Plasma Concentration, 30 min, 1 mg IV in PBS (0.08 mg/kg), SC427, mean
  concentration at 30 min: 16.2 ng/mL
[2]; female, beagle, dog, plasma, intravenous, 1 mg, Tigecycline Plasma Concentration, 40 min, 1 mg IV in PBS (0.08 mg/kg), SC427, individual dogs
  concentration at 40 min: 14.3 ng/mL
[2]; female, beagle, dog, plasma, intravenous, 1 mg, Tigecycline Plasma Concentration, 40 min, 1 mg IV in PBS (0.08 mg/kg), SC427, mean
  concentration at 40 min: 15.8 ng/mL
[2]; female, beagle, dog, plasma, intravenous, 1 mg, Tigecycline Plasma Concentration, 60 min, 1 mg IV in PBS (0.08 mg/kg), SC427, individual dogs
  concentration at 60 min: 13.5 ng/mL
[2]; female, beagle, dog, plasma, intravenous, 1 mg, Tigecycline Plasma Concentration, 60 min, 1 mg IV in PBS (0.08 mg/kg), SC427, mean
  concentration at 60 min: 13.5 ng/mL
[2]; female, beagle, dog, plasma, intravenous, 1 mg, Tigecycline Plasma Concentration, 90 min, 1 mg IV in PBS (0.08 mg/kg), SC427, individual dogs
  concentration at 90 min: 11.2 ng/mL
[2]; female, beagle, dog, plasma, intravenous, 1 mg, Tigecycline Plasma Concentration, 90 min, 1 mg IV in PBS (0.08 mg/kg), SC427, mean
  concentration at 90 min: 11.4 ng/mL
[2]; female, beagle, dog, plasma, intravenous, 1 mg, Tigecycline Plasma Concentration, 120 min, 1 mg IV in PBS (0.08 mg/kg), SC427, individual dogs
  concentration at 120 min: 11.6 ng/mL
